Reference: PubChem BioAssay (NCI)
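How tested: cells in 96-well plates exposed to compound for 48 hours at five concentrations. Abbreviation: GI50, concentration required for 50% inhibition of growth. TGI: concentration producing complete growth inhibition.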

Key:
Assay in all cases: NCI tumour cell line growth inhibition, 48 h
[1] = tested on: 786-0 renal
[2] = tested on: BT-549 breast
[3] = tested on: CAKI-1 renal
[4] = tested on: DU-145 prostate
[5] = tested on: HCC-2998 colon
[6] = tested on: HT29 colon
[7] = tested on: K-562 leukemia
[8] = tested on: OVCAR-8 ovarian
[9] = tested on: RXF 393 renal
[10] = tested on: SN12C renal

| Structure (SMILES) | GI50 [1] | TGI [1] | GI50 [2] | TGI [2] | GI50 [3] | TGI [3] | GI50 [4] | TGI [4] | GI50 [5] | TGI [5] | GI50 [6] | TGI [6] | GI50 [7] | TGI [7] | GI50 [8] | TGI [8] | GI50 [9] | GI50 [10] | TGI [10] | TGI [9] |
| --- | --- | --- | --- | --- | --- | --- | --- | --- | --- | --- | --- | --- | --- | --- | --- | --- | --- | --- | --- | --- |
| COc1ccc(Cn2cc3c(c2-c2ccc(OC)cc2)CCc2cnoc2-3)cc1 | 0.658 µM | > 100 µM | 0.76 µM | > 100 µM | 0.309 µM | > 100 µM | 0.35 µM | 2.71 µM | 0.846 µM | 5.92 µM | 0.309 µM | 1.24 µM | 0.349 µM | > 100 µM | 0.621 µM | > 100 µM | 0.322 µM | 0.795 µM | > 100 µM |  |
| CCCCS(=O)(=O)CCC(N)C(=O)O (configuration not stated) |  | > 100 µM |  | > 100 µM |  | > 100 µM |  | > 100 µM |  | > 100 µM |  | > 100 µM |  | > 100 µM |  | > 100 µM |  |  | > 100 µM | > 100 µM |
| CCOC(=O)C(=Cc1ccc(Oc2ccccc2)cc1)C(=O)OCC |  | 3.47 µM |  | 5.11 µM |  | 28.4 µM |  | 27.5 µM |  | 24 µM |  | 11 µM |  | 5.27 µM |  | 10.7 µM |  |  | 5.65 µM | 4.69 µM |
| CC[C@@H](C(=O)[C@@H](C)[C@@H](O)[C@H](C)[C@@H]1O[C@@H]([C@@H](CC)C(=O)N(CC)CC)CC[C@@H]1C)C1O[C@]2(C=CC(=O)[C@]3(CC[C@@](C)([C@H]4CC[C@](O)(CC)[C@H](C)O4)O3)O2)[C@H](C)C[C@@H]1C (some centres not stated) | 3.22 µM | 15.9 µM | 3.29 µM | 61.9 µM | 2.18 µM | 13.5 µM | 3.41 µM | 12.6 µM | 1.97 µM | 4.79 µM | 2.73 µM | 15.6 µM | 2.89 µM | > 100 µM | 3.55 µM | > 100 µM | 1.66 µM | 2.41 µM | 8.64 µM | 4.06 µM |
| Nc1nc(-c2ccc(F)cc2)c(-c2ccc3ncccc3n2)s1 | 16.9 µM | > 25 µM | 16.1 µM | > 25 µM | 9.27 µM | > 25 µM | 14.1 µM | > 25 µM | > 25 µM | > 25 µM | 16.3 µM | > 25 µM | > 18.5 µM | > 25 µM | 15.6 µM | > 25 µM | 12.3 µM | 10.1 µM | > 25 µM | > 25 µM |
| C[C@@H](CO)[C@@H]1CCC=C2CC[C@]3(C)[C@H](CC[C@@H]4[C@@]5(C)CCCNC(C)(C)[C@@H]5CC[C@]43C)[C@H]21 | 1.93 µM | 3.82 µM | 5.11 µM | 24.9 µM | 1.89 µM | 4.25 µM | 3.36 µM | 11.3 µM | 1.62 µM | 3.11 µM | 1.85 µM | 4.49 µM | 2.01 µM | 6.73 µM | 2.02 µM | 4.1 µM | 2.39 µM | 3.11 µM | 12.5 µM | 6.25 µM |
| CCNC(=O)c1cc2c(-c3cc(C(C)(C)O)ccc3Oc3c(C)cc(F)cc3C)cn(C)c(=O)c2[nH]1 | 1.15 µM | 19.2 µM | 2.01 µM | 11.4 µM | 0.875 µM | 13.2 µM | 4.52 µM | 18.4 µM | 1.66 µM | 4.03 µM | 1.12 µM | 15 µM | 1.86 µM | > 100 µM | 2.54 µM | 20.4 µM | 1.81 µM | 3.03 µM | 16.8 µM | 5.2 µM |
| COc1ccc(OC)c(/C=C(/C)[N+](=O)[O-])c1 | 1.94 µM | 3.48 µM | 5.4 µM | 18.5 µM | 1.29 µM | 2.77 µM | 1.64 µM | 3.16 µM | 1.84 µM | 3.41 µM | 2.56 µM | 5.2 µM | 2.57 µM | > 100 µM | 2.13 µM | 4.91 µM | 1.72 µM | 2.17 µM | 5.02 µM | 3.18 µM |
| O=[N+]([O-])c1c(Br)sc(Br)c1[N+](=O)[O-] | 1.73 µM | 3.25 µM | 16.1 µM | 29.7 µM | 1.83 µM | 3.63 µM | 6.8 µM | 19.6 µM | 12.3 µM | 26.2 µM | 1.7 µM | 3.47 µM | 0.815 µM | 3.99 µM | 2.39 µM | 7.08 µM | 1.47 µM | 3.12 µM | 10.9 µM | 2.85 µM |
| O=C1c2ccccc2C(=O)c2c1ccc(C1C(=O)c3ccccc3C1=O)c2-c1c(C2C(=O)c3ccccc3C2=O)ccc2c1C(=O)c1ccccc1C2=O |  | > 100 µM |  | > 100 µM |  | > 100 µM |  | > 100 µM |  |  |  | > 100 µM |  | > 100 µM |  | > 100 µM |  |  | > 100 µM | > 100 µM |
| O=C(O)c1cccc(N=Nc2c(S(=O)(=O)O)ccc3c2C(=O)c2ccccc2C3=O)c1O |  | > 100 µM |  | > 100 µM |  | > 100 µM |  | > 100 µM |  |  |  | > 100 µM |  | > 100 µM |  | > 100 µM |  |  | > 100 µM | > 100 µM |
| COc1cc2c3c(n(CCCI)c(=O)c2cc1OC)-c1cc2c(cc1C3=O)OCO2 | 1.37 µM | > 100 µM | 1.82 µM | 9.44 µM | 0.454 µM | > 100 µM | 2.28 µM | > 100 µM | 5.61 µM | > 100 µM | 5.46 µM | > 100 µM | 2.27 µM | > 100 µM | 3.16 µM | 81.8 µM | 6.81 µM |  |  | > 100 µM |
| COc1cc(O)c(C(=O)/C=C/c2ccc(O)cc2)c(O)c1[C@@H]1C[C@H](CCc2ccc(O)cc2)O[C@H](c2ccc(O)cc2)C1 | 2.47 µM | 7.1 µM | 4.36 µM | 17.6 µM | 13.6 µM | 28.9 µM | 3.22 µM | 10.9 µM | 2.25 µM | 4.02 µM | 3.66 µM | 11.2 µM |  |  | 3.77 µM | 29.1 µM | 3.1 µM | 4.36 µM | 20.3 µM | 9.07 µM |
| COc1cc(COC(=O)N(CC(=O)O)c2ccccc2)c([N+](=O)[O-])cc1OC |  | > 100 µM |  | > 100 µM |  |  |  | > 100 µM |  | > 100 µM |  | > 100 µM |  | > 100 µM |  | > 100 µM |  |  | > 100 µM | > 100 µM |
